The record followed here is patent US20200253929A1, “TREATMENT OF EPILEPSY” (priority 2017, published 2020).

Entries after “also recorded” stand apart in the source; their conditions may differ.

One data set has as its system zebrafish larvae. As to the kind of experiment: Zebrafish toxicity evaluation (maximum tolerated concentration). The class given is in vivo, Danio rerio. The conditions noted are these: up to 18 hours exposure, 100 μg/mL used where no MTC was reached. The protocol:
(§1) In case no MTC was reached, 100 μg/mL was used as the test concentration. In line with studies previously reported [Baraban et al. (2005) Neurosci 131, 759-768; Afrikanova et al. (2013) PLoS One 8, e54166], addition of the GABAA-receptor antagonist PTZ to the swimming water of 7 days post-fertilization (dpf) zebrafish larvae strongly elevated larval locomotion (p≤0.001) (FIGS. 2 and 3) as a result of induced seizures (or seizure-like behavior) that were recognized as typical high-speed swimming, whirlpool-like circling, clonus-like seizures, and loss of posture, as previously described in Baraban et al cited above.
Maximum tolerated concentration (MTC) was determined prior to further experiments and used as the highest test concentration. MTC was investigated by exposing 12 larvae of 6 days post-fertilization (dpf) to a range of concentrations in a 100 μL volume during 18 hours. The following parameters were investigated after 2 and 18 hours of exposure: touch response, morphology, posture, edema, signs of necrosis, swim bladder, and heartbeat. […] In case MTC was not reached, 100 μg/mL was used as the highest test concentration.

The test system of data set [1] is PTZ-induced seizures in zebrafish larvae. Kind of data set: Zebrafish PTZ seizure model, behavioral analysis. It counts as in vivo, Danio rerio. The conditions noted are these: at MTC, 2 or 18 hours incubation (not specified per compound). The procedure:
To investigate whether the isolated compounds display antiseizure activity, they were tested in the zebrafish PTZ seizure model after both an acute (2 hours) and chronic (18 hours) incubation time at their maximum tolerated concentration (MTC) (Table 1, FIG. 1).
as §1
Experimental procedure was described in Afrikanova et al.(2013) PLoS One 8, e54166 and Orellana-Paucar et al. (2012) Epilepsy Behav 24, 14-22. In brief, a single 7 dpf larva (in case of 2 hours incubation) or 6 dpf larva (in case of 18 hours incubation) was placed in each well of a 96-well plate and treated with either VHC (1% DMSO) or compound (1% DMSO) in a 100 μL volume. Larvae were incubated in dark for 2 or 18 hours at 28° C., whereafter 100 μL of either VHC (embryo medium) or 40 mM PTZ (dissolved in embryo medium, 20 mM working concentration) was added to each well. Next, within 5 min the 96-well plate was placed in an automated tracking device (ZebraBox Viewpoint, France) and larval behavior was video recorded for 30 min. The complete procedure was performed in dark conditions using infrared light. Total locomotor activity was recorded by ZebraLab software (Viewpoint, France) and expressed in actinteg units, which is the sum of pixel changes detected during the defined time interval (5 min). Larval behavior was depicted as mean actinteg units/5 min during the 30 min recording period and over 5 min time intervals. Data are expressed as mean±SD or as mean ±SEM when the means of independent experiments were pooled.

The subject of the next data set is NMRI mice. Kind of data set: Mouse 6-Hz (44 mA) psychomotor seizure model. The class given is in vivo. An excerpt:
Although the zebrafish model has a high degree of genetic, physiological and pharmacological conservation^13, it is more distinct from humans than mammals. Therefore, we were interested to see if the observed antiseizure properties of azaspirofuran A and pseurotin A2 would translate to a rodent model. The mouse 6-Hz (44 mA) psychomotor seizure model was chosen, because it can detect compounds with novel antiseizure mechanisms and with potential against drug-resistant seizures [Barton et al. (2001) Epilepsy Res 47, 217-227; Wilcox et al. (2013) Epilepsia 54 S4, 24-34]. In this model drug-resistant focal impaired awareness seizures [Fisher et al. (2017) Epilepsia 58, 531-542], previously referred to as complex partial or psychomotor seizures [Holcomb and Dean (2011) Psychomotor Seizures, In Encyclopedia of Child Behavior and Development (Goldstein, S., and Naglieri, J. A., Eds.), pp 1191-1192, Springer US, Boston, Mass.], are induced by low frequency, long duration corneal electrical stimulation (6 Hz, 0.2 ms rectangular pulse width, 3 s duration, 44 mA) and are characterized by stun, twitching of the vibrissae, forelimb clonus, and Straub tail. […] Stimulated mice with a seizure duration shorter than 27 seconds were thus considered to be protected. […] Besides, this study provides another example of the translation of results from zebrafish to rodent seizure models.
Experimental procedure was described in Copmans et al. (2018) Neurochem. Int. 112, 124-133. before Buenafe et al. cited above; Orellana-Paucar cited above. In brief, NMRI mice (average weight 28 g, range 23-32 g) were randomly divided into control and treatment groups (n=5-10). 50 μL (injection volume was adjusted to the individual weight) of VHC (PEG200:DMSO:water; 0.25:0.25:0.5) or treatment (an ASD or test compound dissolved in VHC) was i.p. injected in mice and after 30 or 120 (in case of phenytoin, as reported by Barton et al. cited above) min psychomotor seizures were induced by low frequency, long duration corneal electrical stimulation (6 Hz, 0.2 ms rectangular pulse width, 3 s duration, 44 mA) using an ECT Unit 5780 (Ugo Basile, Comerio, Italy). Mice were manually restrained and a drop of ocular anesthetic (0.5% lidocaine) was applied to the corneas before stimulation. Following electrical current stimulation, the mouse was released in a transparent cage for behavioral observation, which was video-recorded. […] In addition, facial and mouth jerking as well as head nodding were observed occasionally. Mice displaying normal exploratory and locomotion behavior within a time period of 26 seconds were considered to be protected against the induced psychomotor seizures. Seizure durations were measured during the experiment by experienced researchers, familiar with the different seizure behaviors. In addition, seizure durations were determined by blinded video analysis to confirm or correct the initial observations. Data are expressed as mean±SD.

Data set [2] deals with PTZ-induced epileptiform brain activity in zebrafish larvae. Kind of data set: Zebrafish PTZ seizure model, local field potential recordings (electrophysiology). It counts as in vivo, Danio rerio. The conditions noted are these: vs VHC+PTZ. An excerpt: To determine whether azaspirofuran A and pseurotin A2 can ameliorate the PTZ-induced hyperexcitable state of the brain that is characterized by epileptiform discharges, local field potential (LFP) recordings were non-invasively measured from the midbrain (optic tectum) of zebrafish larvae [Zdebik et al. (2013) PLoS One 8, e79765; Britton et al. (2016) In Electroencephalography (EEG): An Introductory Text and Atlas of Normal and Abnormal Findings in Adults, Children, and Infants (St. Louis and Frey, Eds.), Chicago]. To that end larvae were treated with either VHC or test compound (MTC and optimal incubation time were used) followed by a 15 min during exposure to PTZ or VHC prior to the electrophysiology measurements (FIG. 4). […] Thus, both compounds not only ameliorate PTZ-induced seizures but are likely to do so by lowering the PTZ-induced hyperexcitable state of the brain.
Experimental procedure was described before [Zdebik et al. (2013) PLoS One 8, e79765; Sourbron et al. (2017) Front. Pharmac. 8, 191; Copmans et al. (2018) Neurochem. Int. 112, 124-133.]. Non-invasive LFP recordings were measured from the midbrain (optic tectum) of 7 dpf zebrafish larvae pre-incubated with VHC only, PTZ only, compound and VHC, or compound and PTZ. Larvae were incubated for approximately 2 or 18 hours with VHC (1% DMSO) or compound (1% DMSO) in a 100 μL volume. After incubation, 100 μL of VHC (embryo medium) or 40 mM PTZ (dissolved in embryo medium, 20 mM working concentration) was added to the well for 15 min prior to recording. These steps occurred at 28° C., while further manipulation and electrophysiological recordings occurred at room temperature (21° C.). The larva was embedded in 2% low melting point agarose (Invitrogen) and the signal electrode (an electrode inside a soda-glass pipet (1412227, Hilgenberg) pulled with a DMZ Universal Puller (Zeitz, Germany), diameter±20 microns, containing artificial cerebrospinal fluid (ACSF: 124 mM NaCl, 10 mM glucose, 2 mM KCl, 2 mM MgSO4, 2 mM CaCl2, 1.25 mM KH2PO4, and 26 mM NaHCO3, 300-310 mOsmols)) was positioned on the skin covering the optic tectum. A differential extracellular amplifier (DAGAN, USA) amplified the voltage difference between the signal (measured by the signal electrode) and the reference electrode. The differential signal was band pass filtered at 0.3-300 Hz and digitized at 2 kHz via a PCI-6251 interface (National instruments, UK) using WinEDR (John Dempster, University of Strathclyde, UK). A grounding electrode grounded the electrical system. All electrodes were connected with ACSF. Each recording lasted 600 seconds. Manual analysis was completed by quantification of the number, cumulative duration, and mean duration of epileptiform-like events with Clampfit 10.2 software (Molecular Devices Corporation, USA). An electrical discharge was considered epileptiform if it was a poly-spiking event comprising at least 3 spikes with a minimum amplitude of three times the baseline amplitude and a duration of at least 100 milliseconds. Data are expressed as mean±SD for the number and cumulative duration of epileptiform events and as mean±SEM for the mean duration of events.

[3] abbreviates: MTC and optimal incubation time, 10 min recording.

11-O-methylpseurotin A: the “MTC (maximum tolerated concentration)” value with zebrafish larvae is 100 µg/mL. For the same molecule, the “PTZ-induced seizures (seizure-like behavior)” value (“PTZ-induced seizures” below) is listed as “less pronounce reduction in PTZ-induced seizures” in data set [1] and “not active” in data set [1] (listed as 11-Omethylpseurotin A).
Take `CC/C=C\C(OC(=O)c1ccccc1N)C(O)C1=C(C)C(=O)C2(O1)C(=O)NC(OC)(C(=O)c1ccccc1)C2O` (centres unmarked) [11-anthranilyl-Pseurotin A]: the “MTC (maximum tolerated concentration)” value in the data set with zebrafish larvae was found to be 100 µg/mL. Moreover, the “PTZ-induced seizures” value in data set [1] was “less pronounce reduction in PTZ-induced seizures”.
On to `CCc1ccc(C2=C(C)C(=O)[C@]3(O2)C(=O)N[C@@](O)(C(=O)c2ccccc2)[C@@H]3O)o1` [azaspirofuran B], for which the “MTC (maximum tolerated concentration)” value in the data set on zebrafish larvae was found to be 12.5 µg/mL.
As for `O=C1NC(=O)C(c2ccccc2)(c2ccccc2)N1` [phenytoin, reference compound], the response of seizures entry in the data set on NMRI mice (10 mg/kg i.p., 120 min before electrical stimulation) is “limited non-significant response”.
On to `CC/C=C\[C@H](O)[C@H](O)C1=C(C)C(=O)[C@]2(O1)C(=O)N[C@@](OC)(C(=O)c1ccccc1)[C@@H]2O` [pseurotin A], for which the “MTC (maximum tolerated concentration)” value in the data set with zebrafish larvae was 100 µg/mL. The “PTZ-induced seizures” value in data set [1] is reported as “not active”. The “mean duration of epileptiform events” value in data set [2] (100 μg/mL, 18 hours) was “significantly lower the mean duration”. Further, in data set [2] (setting [3]), the “cumulative duration of epileptiform events” value is given as “non-significantly lower” and the “number of epileptiform events” value is “non-significantly lower”.
As to `CCC(O)C=C[C@H](O)C1=C(C)C(=O)[C@]2(O1)C(=O)N[C@@](OC)(C(=O)c1ccccc1)[C@@H]2O` (some centres unmarked) [pseurotin D], in the data set with zebrafish larvae, the “MTC (maximum tolerated concentration)” value is 100 µg/mL. The “PTZ-induced seizures” value in data set [1] is recorded as “less pronounce reduction in PTZ-induced seizures; also recorded: not active”.
Regarding `CC/C=C\[C@H](O)[C@H](O)C1=C(C)C(=O)[C@]2(O1)C(=O)N[C@](O)(C(=O)c1ccccc1)[C@@H]2O` [pseurotin F1], the “MTC (maximum tolerated concentration)” value with zebrafish larvae was 50 µg/mL. Also, the “PTZ-induced seizures” value in data set [1] was “less pronounce reduction in PTZ-induced seizures”.
Consider `CCCC(CCC)C(=O)O` [valproate, reference compound], for which the mean seizure duration in the data set with NMRI mice (300 mg/kg i.p., 30 min before electrical stimulation) turned out to be 4 s.
